Structures can show the parent of a compound that is named as a salt. One block for each compound: values may come before it.
Key:
[1] = molecular target: T1, β-lactamase produced by Escherichia coli JT4 (Escherichia coli, UniProt P62593); assay: β-lactamase inhibition assay (Description 1); type: biochemical
T1 construct: This cell suspension was then disrupted in an MSE ultrasonic disintegrator at 4° C; endogenous in cells; host or cells: Escherichia coli JT4 (ampicillin-resistant, R-factor), supernatant of sonicated cells
T1 sequence (P62593 24-286 limits assumed): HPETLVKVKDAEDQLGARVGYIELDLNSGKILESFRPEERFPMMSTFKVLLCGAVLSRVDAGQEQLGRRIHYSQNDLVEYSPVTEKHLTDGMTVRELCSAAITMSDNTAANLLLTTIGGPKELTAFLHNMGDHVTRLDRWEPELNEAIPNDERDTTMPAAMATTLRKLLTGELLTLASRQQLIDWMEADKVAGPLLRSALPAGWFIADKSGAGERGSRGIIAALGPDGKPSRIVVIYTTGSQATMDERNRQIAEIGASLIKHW

[2] = tested on: Staphylococcus aureus Russell; assay: MIC, microtitre technique (Example 53); type: cell-based
[3] = tested on: Klebsiella aerogenes E70; assay: MIC, microtitre technique (Example 53); type: cell-based
[4] = molecular target: T2, β-lactamase of Staphylococcus aureus (Russell) (Staphylococcus aureus, UniProt P00807); assay: β-lactamase inhibition assay; type: biochemical; details: standard enzyme inhibitory assay (Example 49); read-out: I50 (converted)
T2 construct: endogenous in cells; host or cells: Staphylococcus aureus (Russell)

[5] = tested on: Staphylococcus aureus(Russell); assay: MIC / synergism, microtitre method (Example 42); type: cell-based; details: synergist (clavulanic acid sodium salt) added at 1 μg/ml. instead of 5 μg/ml.
[6] = hydrolysis of ester in phosphate buffer pH 7; type: physicochemical; details: 1 mg/ml., 37° C, 0.05M phosphate buffer at pH 7, followed over 2 hours by paper chromatography
Experimental: The reaction was followed by paper chromatography (bioautographic system). Using the butanol/ethanol/water system to follow the reaction over a period of 2 hours the zone of the methyl ester at Rf 0.79 decreased in size as the zone of clavulanic acid at Rf 0.12 increased.

[7] = tested on: Klebsiella aerogenes A; assay: MIC / synergism, microtitre method (Example 42); type: cell-based; details: method of Example 42 (μg/ml)
[8] = tested on: Staphylococcus aureus (Russell); assay: MIC / synergism with methyl ester (Example 32); type: cell-based; details: in the presence of 1.0 μg/ml. clavulanic acid methyl ester
[9] = tested on: Klebsiella aerogenes E 70; assay: MIC / synergism, microtitre method (Example 42); type: cell-based; details: method of Example 42 (μg/ml)
[10] = tested on: Klebsiella aerogenes 62; assay: MIC / synergism, microtitre method (Example 42); type: cell-based; details: method of Example 42 (μg/ml)
[11] = tested on: Proteus mirabilis C889; assay: MIC / synergism with methyl ester (Example 32); type: cell-based; details: in the presence of 5 μg/ml. clavulanic acid methyl ester
[12] = head prints sodium clavulanate, title sodium isoclavulanate, inoculum 1/500

SMILES: O=C(O)[C@H]1/C(=C/CO)O[C@@H]2CC(=O)N21 [clavulanic acid, Z-(2R,5R)-3-(β-hydroxyethylidene)-7-oxo-4-oxa-1-azabicyclo[3,2,0]heptane-2-carboxylic acid]
mode of inhibition of the β-lactamase [1]: progressively and irreversibly inhibits

SMILES: O=C(O)[C@H]1/C(=C/CO)O[C@@H]2CC(=O)N21 [clavulanic acid sodium salt, 3-(β-hydroxyethylidine)-7-oxo-4-oxa-1-azabicyclo [3,2,0]heptane-2-carboxylic acid sodium salt]
MIC ([2]; Staphylococcus aureus, compound alone, inoculum of 1/500 of overnight broth): 125 µg/mL | MIC ([3]; Klebsiella aerogenes, E70): 500 µg/mL

SMILES: O=C(COc1ccccc1)OC/C=C1\O[C@@H]2CC(=O)N2[C@H]1C(=O)OCc1ccccc1 [Benzyl phenoxyacetylclavulanate]
IC50 [4]: 17.7 µM | IC50 ([1]; benzylpenicillin substrate, 15 min preincubation, pH 7, 37° C): 5.9 µM

SMILES: O=C(Cc1cccs1)N[C@@H]1C(=O)N2C(C(=O)[O-])=C(C[n+]3ccccc3)CS[C@H]12 [Cephaloridine, cephaloridine]
Minimum Inhibitory Concentration of cephaloridine in presence of synergist [5]: Same value

SMILES: COC(=O)[C@H]1/C(=C/CO)O[C@@H]2CC(=O)N21 [clavulanic acid methyl ester]
hydrolysis of the ester to clavulanic acid [6]: Slow conversion of the ester to clavulanic acid

MIC of Ampicillin + 1μg/ml sodium clavulanate [2, 12]: 3.9 µg/mL | MIC of Ampicillin + 5μg/ml sodium clavulanate [2, 12]: 0.78 µg/mL | MIC of Ampicillin + 20μg/ml sodium clavulanate [2, 12]: 0.39 µg/mL | MIC of Ampicillin + 1μg/ml sodium clavulanate [3, 12]: 15.6 µg/mL | MIC of Ampicillin + 20μg/ml sodium clavulanate [3, 12]: 6.2 µg/mL | MIC of Ampicillin + 5 μg/ml of Benzyl Ester of clavulanic acid [7]: 1.9 | MIC of Ampicillin + 5 μg/ml of Methyl Ester of clavulanic acid [7]: 1.9 | MIC of Ampicillin + 5 μg/ml of Benzyl Ester of clavulanic acid [9]: 3.9 | MIC of Ampicillin + 5 μg/ml of Methyl Ester of clavulanic acid [9]: 3.9 | MIC of Ampicillin + 5 μg/ml of Benzyl Ester of clavulanic acid [10]: 3.9 | MIC of Ampicillin + 5 μg/ml of Methyl Ester of clavulanic acid [10]: 3.9
SMILES: CC1(C)S[C@@H]2[C@H](NC(=O)[C@H](N)c3ccccc3)C(=O)N2[C@H]1C(=O)O [Ampicillin, ampicillin]
minimum inhibitory concentration (M.I.C.) of antibiotic in presence of synergist [8]: < 0.4 µg/mL | minimum inhibitory concentration (M.I.C.) of antibiotic in presence of synergist [11]: 31 µg/mL

Reference: patent publication US4123540A, “Isoclavulanic acid as an antibacterial and a β-lactamase inhibitor” (Beecham Group Limited, priority 1974, dated 1978)
